Measured values reported in patent publication US8192962B2, “Processes for detecting toxic substances” (Daikin Industries, Ltd., priority 2001, dated 2012).

Experiments:
[1] = system: DNA repair protein genes; test: DNA chip mRNA expression in yeast, DNA repair protein genes (Table 3); format: cell-based, Saccharomyces cerevisiae S288C; conditions: incubated two hours, concentrations as in the 1st table
Outline: (§1)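 In this screen, yeast in logarithmic growth are challenged for two hours with a toxic substance at a non-lethal inhibitory concentration. Their mRNA, converted to Cy3- or Cy5-labeled cDNA, hybridizes at 65° C. to a chip spanning every yeast gene, and expression is expressed as a ratio to untreated cells.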

[2] = system: Detoxification protein genes; test: DNA chip mRNA expression in yeast, detoxification protein genes (Table 8); format: cell-based, Saccharomyces cerevisiae S288C
Outline: as §1

CCCCCCCCCCCCOS(=O)(=O)[O-].[Na+] [(18), sodium lauryl sulfate]
The level of expressed mRNA in the presence of chemical substance/The level of expressed mRNA in the absence of chemical substance ([1]; yeast gene YAL015C): 1.2
The level of expressed mRNA in the presence of chemical substance/The level of expressed mRNA in the absence of chemical substance ([1]; yeast gene YAR007C): 1.0
The level of expressed mRNA in the presence of chemical substance/The level of expressed mRNA in the absence of chemical substance ([1]; yeast gene YBL019W): 1.1
The level of expressed mRNA in the presence of chemical substance/The level of expressed mRNA in the absence of chemical substance ([1]; yeast gene YBR073W): 0.8
The level of expressed mRNA in the presence of chemical substance/The level of expressed mRNA in the absence of chemical substance ([1]; yeast gene YBR272C): 1.2
The level of expressed mRNA in the presence of chemical substance/The level of expressed mRNA in the absence of chemical substance ([1]; yeast gene YCR014C): 0.9
The level of expressed mRNA in the presence of chemical substance/The level of expressed mRNA in the absence of chemical substance ([1]; yeast gene YDL017W): 1.0
The level of expressed mRNA in the presence of chemical substance/The level of expressed mRNA in the absence of chemical substance ([1]; yeast gene YDL059C): 0.9
The level of expressed mRNA in the presence of chemical substance/The level of expressed mRNA in the absence of chemical substance ([1]; yeast gene YDL200C): 1.6
The level of expressed mRNA in the presence of chemical substance/The level of expressed mRNA in the absence of chemical substance ([1]; yeast gene YDR054C): 1.4
The level of expressed mRNA in the presence of chemical substance/The level of expressed mRNA in the absence of chemical substance ([1]; yeast gene YDR369C): 0.7
The level of expressed mRNA in the presence of chemical substance/The level of expressed mRNA in the absence of chemical substance ([1]; yeast gene YEL019C): 0.9
The level of expressed mRNA in the presence of chemical substance/The level of expressed mRNA in the absence of chemical substance ([1]; yeast gene YEL037C): 0.8
The level of expressed mRNA in the presence of chemical substance/The level of expressed mRNA in the absence of chemical substance ([1]; yeast gene YER162C): 0.9
The level of expressed mRNA in the presence of chemical substance/The level of expressed mRNA in the absence of chemical substance ([1]; yeast gene YFL014W): 8.8
The level of expressed mRNA in the presence of chemical substance/The level of expressed mRNA in the absence of chemical substance ([1]; yeast gene YGL058W): 0.7
The level of expressed mRNA in the presence of chemical substance/The level of expressed mRNA in the absence of chemical substance ([1]; yeast gene YGL091C): 1.8
The level of expressed mRNA in the presence of chemical substance/The level of expressed mRNA in the absence of chemical substance ([1]; yeast gene YGL127C): 1.2
The level of expressed mRNA in the presence of chemical substance/The level of expressed mRNA in the absence of chemical substance ([1]; yeast gene YGL163C): 0.8
The level of expressed mRNA in the presence of chemical substance/The level of expressed mRNA in the absence of chemical substance ([1]; yeast gene YGL249W): 1.0
The level of expressed mRNA in the presence of chemical substance/The level of expressed mRNA in the absence of chemical substance ([1]; yeast gene YGR180C): 1.9
The level of expressed mRNA in the presence of chemical substance/The level of expressed mRNA in the absence of chemical substance ([1]; yeast gene YGR231C): 1.5
The level of expressed mRNA in the presence of chemical substance/The level of expressed mRNA in the absence of chemical substance ([1]; yeast gene YGR258C): 0.9
The level of expressed mRNA in the presence of chemical substance/The level of expressed mRNA in the absence of chemical substance ([1]; yeast gene YHR164C): 1.0
The level of expressed mRNA in the presence of chemical substance/The level of expressed mRNA in the absence of chemical substance ([1]; yeast gene YIL036W): 1.3
The level of expressed mRNA in the presence of chemical substance/The level of expressed mRNA in the absence of chemical substance ([1]; yeast gene YIL072W): 1.1
The level of expressed mRNA in the presence of chemical substance/The level of expressed mRNA in the absence of chemical substance ([1]; yeast gene YIL143C): 0.9
The level of expressed mRNA in the presence of chemical substance/The level of expressed mRNA in the absence of chemical substance ([1]; yeast gene YIL153W): 0.7
The level of expressed mRNA in the presence of chemical substance/The level of expressed mRNA in the absence of chemical substance ([1]; yeast gene YIR002C): 1.2
The level of expressed mRNA in the presence of chemical substance/The level of expressed mRNA in the absence of chemical substance ([1]; yeast gene YJL026W): 2.1
The level of expressed mRNA in the presence of chemical substance/The level of expressed mRNA in the absence of chemical substance ([1]; yeast gene YJR046W): 0.7
The level of expressed mRNA in the presence of chemical substance/The level of expressed mRNA in the absence of chemical substance ([1]; yeast gene YJR052W): 1.3
The level of expressed mRNA in the presence of chemical substance/The level of expressed mRNA in the absence of chemical substance ([1]; yeast gene YKL145W): 1.5
The level of expressed mRNA in the presence of chemical substance/The level of expressed mRNA in the absence of chemical substance ([1]; yeast gene YLR103C): 1.4
The level of expressed mRNA in the presence of chemical substance/The level of expressed mRNA in the absence of chemical substance ([1]; yeast gene YLR233C): 1.2
The level of expressed mRNA in the presence of chemical substance/The level of expressed mRNA in the absence of chemical substance ([1]; yeast gene YLR288C): 1.3
The level of expressed mRNA in the presence of chemical substance/The level of expressed mRNA in the absence of chemical substance ([1]; yeast gene YML032C): 1.0
The level of expressed mRNA in the presence of chemical substance/The level of expressed mRNA in the absence of chemical substance ([1]; yeast gene YML058W): 1.5
The level of expressed mRNA in the presence of chemical substance/The level of expressed mRNA in the absence of chemical substance ([1]; yeast gene YMR035W): 2.4
The level of expressed mRNA in the presence of chemical substance/The level of expressed mRNA in the absence of chemical substance ([1]; yeast gene YMR072W): 1.9
The level of expressed mRNA in the presence of chemical substance/The level of expressed mRNA in the absence of chemical substance ([1]; yeast gene YMR096W): 1.0
The level of expressed mRNA in the presence of chemical substance/The level of expressed mRNA in the absence of chemical substance ([1]; yeast gene YMR284W): 1.3
The level of expressed mRNA in the presence of chemical substance/The level of expressed mRNA in the absence of chemical substance ([1]; yeast gene YNL213C): 1.2
The level of expressed mRNA in the presence of chemical substance/The level of expressed mRNA in the absence of chemical substance ([1]; yeast gene YNL250W): 1.0
The level of expressed mRNA in the presence of chemical substance/The level of expressed mRNA in the absence of chemical substance ([1]; yeast gene YNL261W): 1.0
The level of expressed mRNA in the presence of chemical substance/The level of expressed mRNA in the absence of chemical substance ([1]; yeast gene YNL312W): 1.1
The level of expressed mRNA in the presence of chemical substance/The level of expressed mRNA in the absence of chemical substance ([1]; yeast gene YOL043C): 1.0
The level of expressed mRNA in the presence of chemical substance/The level of expressed mRNA in the absence of chemical substance ([1]; yeast gene YOR005C): 1.0
The level of expressed mRNA in the presence of chemical substance/The level of expressed mRNA in the absence of chemical substance ([1]; yeast gene YOR386W): 1.7
The level of expressed mRNA in the presence of chemical substance/The level of expressed mRNA in the absence of chemical substance ([1]; yeast gene YPL022W): 0.9
The level of expressed mRNA in the presence of chemical substance/The level of expressed mRNA in the absence of chemical substance ([1]; yeast gene YPL164C): 1.0
The level of expressed mRNA in the presence of chemical substance/The level of expressed mRNA in the absence of chemical substance ([1]; yeast gene YPL194W): 0.8
The level of expressed mRNA in the presence of chemical substance/The level of expressed mRNA in the absence of chemical substance ([1]; yeast gene YPR025C): 1.5
The level of expressed mRNA in the presence of chemical substance/The level of expressed mRNA in the absence of chemical substance ([2]; yeast gene YBL064C): 2.3
The level of expressed mRNA in the presence of chemical substance/The level of expressed mRNA in the absence of chemical substance ([2]; yeast gene YBR008C): 1.2
The level of expressed mRNA in the presence of chemical substance/The level of expressed mRNA in the absence of chemical substance ([2]; yeast gene YBR145W): 2.0
